According to US20020128193A1, “Retro-inverso prosaposin-derived peptides and use thereof” (priority 1999, published 2002):
Values after ≈ are worked out from the molar mass of the structure shown. Read-outs that look alike come from different tables or passages of the source. Non-standard residues stand in square brackets, D forms with d. Residues, ends and D or L forms follow the SMILES beside them. No end group written: not given here.

Legend:
EAE rats = assay: Reversal of demyelination in experimental allergic encephalomyelitis (EAE) rat model; type: in vivo, Lewis rats; settings: oral D8 100 μg/kg daily
Method: Experimental allergic encephalomyelitis (EAE) is a rat model of human multiple sclerosis (MS). In rats, EAE is induced by injecting foreign protein (guinea pig spinal cord) which results in inflammation and demyelination in white matter 11 days later.
EAE was induced in Lewis rats by injection of an emulsion of guinea pig spinal cord and complete Freund's adjuvant (CFA). At day 12-14, when weakness was evident, treatment with D8 (SEQ ID NO: 4) was begun (100 μg/kg orally in PBS via a stomach tube) and continued for 16 days every day. Six rats were injected with vehicle only. The number and size of demyelinating lesions (plaques) in the spinal cord per mm^2 was scored at […].
After 16 days of oral treatment with D8 (100 μg/kg/day) beginning after the onset of EAE at 14 days, spinal cord lesions were examined and the number of remyelinated axons per lesion were counted.

[1] = Localization and integrity of 125I-peptide D8 in organs after intramuscular or oral administration; type: in vivo, Sprague-Dawley rat; settings: for D8 in tissue: Brain / D8 in tissue: Eyes / D8 in tissue: Heart / D8 in tissue: Kidney 1 / D8 in tissue: Kidney 2 / D8 in tissue: Liver / D8 in tissue: Lung / D8 in tissue: Muscle / D8 in tissue: Sciatic Nerve / D8 in tissue: Spinal Cord / D8 in tissue: Spleen: 200 μg/kg, rat; for crossing of the blood brain barrier: iodinated D8, rat, found in brain after oral administration
Method: Peptide D8 (SEQ ID NO: 4) was iodinated with ^125I according to the manufacturer's instructions (Pierce Chemical Co., Rockford, Ill.), and 200 μg/kg in PBS was injected intramuscularly into, or administered orally to, an adult male Sprague-Dawley rat. […] Results below give ng/g of […] in each tissue after conversion of cpm to nanograms (Table 2). All organs studied contained 90% or greater intact D8. The trophic concentration was estimated to be about 0.2 ng/g over 20 min.

[2] = tested on: NS20Y neuroblastoma cells; settings: for Bioactive?: neurite outgrowth, 0-8 ng/ml peptide, 24 hours
Method: NS20Y neuroblastoma cells were grown in DMEM containing 10% fetal calf serum (FCS). Cells were removed with trypsin and plated in 30 mm petri dishes onto glass coverslips. […] Cells were cultured for an additional 24 hours, washed with PBS and fixed with Bouin's solution (saturated aqueous picric acid/formalin/acetic acid 15:5:1) for 30 minutes. Fixative was removed with PBS and neurite outgrowth was scored under a phase contrast microscope. […] At least 200 cells were scored in different portions of each dish to determine the percentage of neurite bearing cells and assays were performed in duplicate.
The ED50 value is defined as the half maximal concentration for maximal neurite outgrowth and neural protection in ng/ml.

[3] = tested on: choline acetyltransferase; settings: neuroblastoma cells in vitro; cited from earlier work
[4] = tested on: neuroblastoma cells and mouse cerebellar explants; settings: cited from earlier work
neuroblastoma cells = neuroblastoma cells in vitro; cited from earlier work
myelination = settings: cited from earlier work
[5] = half maximal concentration for maximal neurite outgrowth and neural protection, NS20Y cells

CC(C)C[C@@H](N)C(=O)N[C@H](CC(C)C)C(=O)N[C@H](CCC(=O)O)C(=O)N[C@H](CCC(=O)O)C(=O)N[C@H](CC(N)=O)C(=O)N[C@H](CC(N)=O)C(=O)N[C@H](CC(=O)O)C(=O)N[C@H](CC(C)C)C(=O)O [Peptide D8, D-leu-D-leu-D-glu-D-glu-D-asn-D-asn-D-asp-D-leu] (HELM PEPTIDE1{[dL].[dL].[dE].[dE].[dN].[dN].[dD].[dL]}$$$$V2.0; N-terminus and C-terminus assumed)
weight loss versus control animals (EAE rats): no difference in weight loss
D8 in tissue: Brain ([1]; intramuscular, 20 min): 1.00 ng/g
D8 in tissue: Eyes ([1]; intramuscular, 20 min): 13.9 ng/g
D8 in tissue: Heart ([1]; intramuscular, 20 min): 9.8 ng/g
D8 in tissue: Kidney 1 ([1]; intramuscular, 20 min): 395 ng/g
D8 in tissue: Kidney 2 ([1]; intramuscular, 20 min): 405 ng/g
D8 in tissue: Liver ([1]; intramuscular, 20 min): 8.0 ng/g
D8 in tissue: Lung ([1]; intramuscular, 20 min): 43.0 ng/g
D8 in tissue: Muscle ([1]; intramuscular, 20 min): 19.7 ng/g
D8 in tissue: Sciatic Nerve ([1]; intramuscular, 20 min): 36.7 ng/g
D8 in tissue: Spinal Cord ([1]; intramuscular, 20 min): 2.90 ng/g
D8 in tissue: Spleen ([1]; intramuscular, 20 min): 41.7 ng/g
crossing of the blood brain barrier [1]: can cross the blood brain barrier
crossing of the blood brain barrier ([1]; listed as SEQ ID NO: 4): crosses the blood brain barrier
D8 in tissue: Brain ([1]; oral, 25 min): 5.62 ng/g
D8 in tissue: Eyes ([1]; oral, 25 min): 4.66 ng/g
D8 in tissue: Heart ([1]; oral, 25 min): 3.26 ng/g
D8 in tissue: Kidney 1 ([1]; oral, 25 min): 201 ng/g
D8 in tissue: Kidney 2 ([1]; oral, 25 min): 217 ng/g
D8 in tissue: Liver ([1]; oral, 25 min): 5.6 ng/g
D8 in tissue: Lung ([1]; oral, 25 min): 526 ng/g
D8 in tissue: Muscle ([1]; oral, 25 min): 3.2 ng/g
D8 in tissue: Sciatic Nerve ([1]; oral, 25 min): 3.3 ng/g
D8 in tissue: Spinal Cord ([1]; oral, 25 min): 2.15 ng/g
D8 in tissue: Spleen ([1]; oral, 25 min): 4.9 ng/g
ED50 [2]: 0.01 ng/mL (≈ 0.0104 nM)

CEFLVKEVTKLIDNNKTEKEIL [Peptide 22-mer, 22-mer peptide consisting of amino acids 8-29 of human saposin C]
choline acetyltransferase activity [3]: stimulates choline acetyltransferase activity
neurite outgrowth ([4]; in both neuroblastoma cells and mouse cerebellar explants): stimulates neurite outgrowth
cell death (neuroblastoma cells): prevents cell death

LLEETANNDL [Peptide D5]
ED50 [2, 5]: 0.2 ng/mL
Bioactive? ([2]; NS20Y cells): YES

TXLIDNNATEEILY, X=D-alanine (T[dA]LIDNNATEEILY) [Peptide D1]
ED50 [2, 5]: 1.00 ng/mL
Bioactive? ([2]; NS20Y cells): YES

YKEVTKLIDNNKTEKEIL [Peptide 18-mer]
neurite outgrowth [4]: promotes neurite outgrowth

YLIEETANNDLAT [Peptide D2]
ED50 [2, 5]: 0.8 ng/mL
Bioactive? ([2]; NS20Y cells): YES

YLLEETANNDL [Peptide D4]
ED50 [2, 5]: 0.4 ng/mL
Bioactive? ([2]; NS20Y cells): YES

YLLEETANNDLLAT [Peptide D3]
ED50 [2, 5]: 0.4 ng/mL
Bioactive? ([2]; NS20Y cells): YES

YSLEKETKNNDLL [Peptide D6]
ED50 [2, 5]: 0.27 ng/mL
Bioactive? ([2]; NS20Y cells): YES

B1: saposin C: glycoprotein generated by proteolytic processing of prosaposin (protein, UniProt P07602 311-390, looked up)
Saposin-C: SDVYCEVCEFLVKEVTKLIDNNKTEKEILDAFDKMCSKLPKSLSEECQEVVDTYGSSILSILLEEVSPELVCSMLHLCSG
modifications: Saposin-C
notes: glycoprotein generated by proteolytic processing of prosaposin
myelination (myelination): promote increased myelination
neurite outgrowth [4]: stimulate neurite outgrowth
